SMILES strings stand for the structures.

The test deals with Bifunctional protein GlmU (Escherichia coli (strain K12), UniProt P0ACC7). The experiment in a line: Competitive inhibition of Acetyltransferase activity of Escherichia coli BL21(DE3) GlmU in presence of AcCoA.
Chain of Bifunctional protein GlmU (P0ACC7 whole entry): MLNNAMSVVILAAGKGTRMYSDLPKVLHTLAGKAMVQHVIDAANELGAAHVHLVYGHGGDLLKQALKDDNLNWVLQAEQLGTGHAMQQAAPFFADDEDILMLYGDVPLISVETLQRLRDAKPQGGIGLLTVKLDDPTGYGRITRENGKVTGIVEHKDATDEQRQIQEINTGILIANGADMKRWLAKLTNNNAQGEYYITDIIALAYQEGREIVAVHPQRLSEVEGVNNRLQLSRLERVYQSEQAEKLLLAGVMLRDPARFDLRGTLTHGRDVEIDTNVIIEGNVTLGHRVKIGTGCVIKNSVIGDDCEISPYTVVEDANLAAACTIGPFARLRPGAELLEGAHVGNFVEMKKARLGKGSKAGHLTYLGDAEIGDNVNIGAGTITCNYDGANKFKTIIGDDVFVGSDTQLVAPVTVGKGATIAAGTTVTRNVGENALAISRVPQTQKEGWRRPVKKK

In general, Ki refers to a measure of affinity in units of concentration, obtained from inhibition or displacement. For the molecule `O=S(=O)(Nc1ccc(S(=O)(=O)c2ccc(-c3ccc(S(=O)(=O)c4ccc(NS(=O)(=O)c5ccc(Cl)cc5)c(Cl)c4)cc3)cc2)cc1Cl)c1ccc(Cl)cc1` [Mac0008028], the inhibition constant (Ki) was 404 nM.

In the case of `Nc1ccc(Nc2ccc(N)cc2S(=O)(=O)O)cc1` [5-amino-2-(4-aminophenylamino)benzenesulfonic acid], the inhibition constant Ki was found to be 17 nM.

Consider `O=C(CSc1nnc(SCC(=O)NCCSCc2ccco2)s1)NCCSCc1ccco1` [Mac0029665], for which the Ki came out at 23 nM.

The values above are taken from BindingDB's records for doi:10.1128/AAC.01572-08 (Mcmaster University, 2009).
